Measurements published in ChEMBL document CHEMBL1144817, “Mirabalin, [corrected] an antitumor macrolide lactam from the marine sponge Siliquariaspongia mirabilis” (J Nat Prod, 2008).
The source made the active and inactive calls. The rule behind the calls is not given here.

Tests used:
HCT-116 = assay: Antitumor activity against human HCT116 cells; format: functional, cell-based
[1] = Antiproliferative activity against green monkey kidney cells; format: cell-based; settings: chlorocebus aethiops
Candida albicans = assay: Antimicrobial activity against Candida albicans; format: functional, organism-based

IC50 (HCT-116): 270 nM
Compound: CO[C@@H]1[C@@H]2O[C@H](C[C@@H](O)[C@H](C)[C@@H](O)/C(C)=C/[C@H](C)[C@H](O)/C=C/CC(O)CC(C(NC(=O)CC(C)CCC(C)C(O)/C(C)=C/C(C)[C@@H](O)[C@H](NC(=O)/C=C/C(C)(C)C(=O)[C@@H](C)[C@@H](O)C(C)C)[C@@H](O)C(C)C)C(C)O)OC(=O)C(C(O)C(=O)O)NC(=O)/C=C/C=C/C=C/C=C/C=C/[C@H]2OC)C[C@@H]1C (stereo partly drawn) [MIRABILIN MACROLIDE LACTUM]
Activity [1]: Not Active
Activity (Candida albicans): inactive
